Experimental data published in patent EP4725508A1, “LIGAND-DRUG CONJUGATE HAVING FREE PAYLOAD RECOVERY UNIT” (RemeGen Co., Ltd., priority 2024, dated 2025).
“Also recorded” adds a separate entry of the source. Ends that are not written are not given here.

How the values were obtained:
OVA-MMAF = assay: Peptide ELISA binding experiment (Fc fusion peptides); conditions: antigens coated 1 µg/mL, peptide from 2000 nM (FIG. 34)
Procedure: The constructed Fc fusion peptide molecules PP-1A-#84 to #95 were used for identification of binding specificity to OVA-MMAF and OVA, to determine molecules with better specific binding activity to MMAE. […] Table 20. Amino acid sequence listing of PP-1A-#85 (peptide) to PP-1A-#94 (peptide) and PP-1A-#85 (Fc fusion peptide)
• (1) Antigen coating: MMAF conjugated protein and negative protein were coated onto a microplate using coating buffer at a concentration of 1 µg/mL, and the plate was placed at 4°C overnight for about 16 h. (2) Blocking: The plate coated with antigen was washed once with PBST using a plate washer, and blocked by adding Casein solution at 200 µL/well at room temperature for 1 h. (3) Primary antibody incubation: The plate was washed 3 times with PBST, and peptide samples with an initial concentration of 2000 nM diluted in a 5-fold gradient using Casein solution were added. The negative control was the Fc.uIgG1 molecule. Incubation was performed at room temperature for 2 h. (4) Secondary antibody incubation: The plate was washed 3 times with PBST, and secondary antibody Goat pAb to Hu IgG(HRP) (1:10000) (Abcam, Cat. Ab97225) diluted with Casein solution was added and incubated at room temperature for 1 h. (5) Color development: The plate was washed 6 times with PBST, 100 µL of TMB color development solution was added to each well, and color was developed for 2 to 10 min protected from light. (6) Termination: 100 µL of 2 M H2SO4 was added to each well to terminate the reaction. The OD450 value was read using a microplate reader, recorded, and saved. Finally, the data were analyzed using GraphPad software.

BSA-MMAF [1] = assay: Peptide competitive ELISA; format: binding; conditions: peptide 2000 nM, truncated free MMAE or null-ADC from 1000 nM (FIG. 35)
Procedure: • (1) Antigen coating: BSA-MMAF was coated onto a microplate using coating buffer at a concentration of […], and placed at 4°C overnight for about 16 h. (2) Blocking: The microplate coated with antigen was washed once with PBST using a plate washer, and blocked by adding Casein solution at 200 µL/well at room temperature for 1 h. (3) Primary antibody incubation: The plate was washed 3 times with PBST, and a premixture of peptide sample diluted with Casein solution and truncated free MMAE/null-ADC was added. The final concentration of the peptide sample was 2000 nM. […] The positive control was molecule ABC3320 with a final concentration of 1.28 nM. Incubation was performed at room temperature for 2 h. (4) Secondary antibody incubation: The plate was washed 3 times with PBST, and secondary antibody Goat pAb to Hu IgG(HRP) (1:10000) diluted with Casein solution was added and incubated at room temperature for 1 h. (5) Color development: The plate was washed 6 times with PBST, 100 µL of TMB color development solution was added to each well, and color was developed for 2 to 10 min protected from light. (6) Termination: 100 µL of 2 M H2SO4 was added to each well to terminate the reaction. The OD450 value was read using a microplate reader, recorded, and saved. Finally, the data were analyzed using GraphPad software.

OVA-DXD = assay: Dot blot screening for DXD specific binding peptides; conditions: OVA or OVA-DXD 20 µg/mL spotted (FIG. 40)
Procedure: Sample preparation: 50 mL of bacterial liquid induced with IPTG overnight (16°C, 16 h) was collected by centrifugation at 5000 rpm for 5 min, and the supernatant was discarded. 7 mL of PBS was added to resuspend the bacterial pellet, and it was disrupted at 200 W for 5 min. It was centrifuged at 12,000 rpm for 20 min, and the supernatant was collected for later use. Spotting: A nylon membrane (Beyotime, CAT#FFN10) was cut to an appropriate size and marked with lines. 3 µL of antigen sample (OVA or OVA-DXD, 20 µg/mL) was spotted onto the membrane using a pipette. The consistency of the spotted volume and the spacing between spots were carefully dealt with to avoid mutual interference between samples. After spotting, the membrane was allowed to dry naturally at room temperature. Blocking: The dried membrane was placed in a blocking solution (5% skim milk) and blocked on a shaker at room temperature for 1 to 2 h. The purpose of blocking was to prevent non-specific binding and reduce background signals. Washing: After incubation of the primary antibody, the membrane was thoroughly washed with washing buffer (PBST) 3 times for 5 min each time to remove unbound primary antibody. Secondary antibody incubation: The membrane was placed in a solution containing appropriately diluted secondary antibody and incubated at room temperature for 1 to 2 h. The secondary antibody was an antibody against the primary antibody, usually carrying a detectable label such as horseradish peroxidase (HRP) or alkaline phosphatase (AP). Washing: The membrane was washed again with washing buffer to remove unbound secondary antibody, 3 times for 5 min each time. Color development: An appropriate amount of ECL color development substrate solution was applied to the membrane, and the reaction was performed at room temperature protected from light. The color development was observed using a gel imager, and the membrane was photographed and recorded. Through observing the presence or absence and the color depth of the spots, the target protein in the sample can be qualitatively or semi-quantitatively analyzed.

NCI-H292 tumor cells = assay: Inhibitory effect of DXD-binding peptides on DXD cytotoxicity; format: cell-based; conditions: DXD 1 ng/mL, peptides from 100 µg/mL, 3 days (FIG. 41)
Procedure: NCI-H292 tumor cells were used to detect the inhibitory effect of DXD-binding peptides on DXD cytotoxicity.
NCI-H292 cells were digested, counted, and plated at 5E3 cells/well, with 60 µL per well, and allowed to adhere in a 37°C incubator. Peptide molecules and nonsense control antibody Null IgG were 2-fold diluted for 7 gradients starting at a concentration of 100 µg/mL The DXD concentration was fixed to 1 ng/mL. The test substances were incubated with DXD at room temperature for 2 h. The incubated samples were added into the 96-well plate at 60 µL/well and cultured in a 37°C incubator for 3 days. 100 µL of Cell Counting-Lite 2.0 Reagent was added to each well, and the plate was shaken on a shaker for 10 min. The fluorescence signal was read using a microplate reader.

Nectin-4 = Nectin-4 (UniProt Q96NY8); assay: binding assay read as OD450; method not described
OVA-MMAF and BSA-MMAF = assay: Peptide ELISA binding experiment (PP-1B Fc fusion peptides); conditions: FIG. 42
Procedure: The binding of the constructed Fc fusion peptide molecules PP-1B-#70 to #74 with OVA-MMAF and OVA was identified respectively to screen for molecules with better specific binding specificity to MMAE. After the first round of primary screening was completed, the binding specificity of #74 with OVA-MMAF and BSA-MMAF was further verified.
• (1) Antigen coating: MMAF conjugated protein and negative protein were coated onto a microplate using coating buffer at a concentration of 1 µg/mL, and the plate was placed at 4°C overnight for about 16 h. (2) Blocking: The microplate coated with antigen was washed once with PBST using a plate washer, and blocked by adding Casein solution at 200 µL/well at room temperature for 1 h. (3) Primary antibody incubation: The plate was washed 3 times with PBST, and peptide samples with an initial concentration of 2000 nM diluted in a 5-fold gradient using Casein solution were added and the plate incubated at room temperature for 2 h. (4) Secondary antibody incubation: The plate was washed 3 times with PBST, and secondary antibody Goat pAb to Hu IgG(HRP) (1:10000) (Abcam, Cat. Ab97225) diluted with Casein solution was added and the plate was incubated at room temperature for 1 h. […] The OD450 value was read using a microplate reader, recorded, and saved. Finally, the data were analyzed using GraphPad software.

BSA-MMAF [2] = assay: Peptide competitive ELISA (PP-1B-#74); format: binding; conditions: FIG. 43
Procedure: Based on the peptide molecule binding activity results, molecule PP-1B-#74 was further verified for its specific binding to MMAE through competitive experiments.
• (1) Antigen coating: BSA-MMAF was coated onto a microplate using coating buffer at a concentration of 1 µg/mL, and the plate was placed at 4°C overnight for about 16 h. (2) Blocking: The microplate coated with antigen was washed once with PBST using a plate washer, and blocked by adding Casein solution at 200 µL/well at room temperature for 1 h. (3) Primary antibody incubation: The plate was washed 3 times with PBST, and a premixture of peptide sample diluted with Casein solution and truncated free MMAE/null-ADC was added. The final concentration of the peptide sample was 2000 nM. The initial concentration of truncated free MMAE and null-ADC was 1000 nM, diluted in a 10-fold gradient, and incubation was performed at room temperature for 2 h. (4) Secondary antibody incubation: The plate was washed 3 times with PBST, and secondary antibody Goat pAb to Hu IgG(HRP) (1:10000) diluted with Casein solution was added and the plate was incubated at room temperature for 1 h. […] Termination: 100 µL of 2 M H2SO4 was added to each well to terminate the reaction, and the OD450 value was read using a microplate reader, recorded, and saved. (6) Finally, the data were analyzed using GraphPad software.

Nectin-4, sequence (Q96NY8 32-349 limits assumed): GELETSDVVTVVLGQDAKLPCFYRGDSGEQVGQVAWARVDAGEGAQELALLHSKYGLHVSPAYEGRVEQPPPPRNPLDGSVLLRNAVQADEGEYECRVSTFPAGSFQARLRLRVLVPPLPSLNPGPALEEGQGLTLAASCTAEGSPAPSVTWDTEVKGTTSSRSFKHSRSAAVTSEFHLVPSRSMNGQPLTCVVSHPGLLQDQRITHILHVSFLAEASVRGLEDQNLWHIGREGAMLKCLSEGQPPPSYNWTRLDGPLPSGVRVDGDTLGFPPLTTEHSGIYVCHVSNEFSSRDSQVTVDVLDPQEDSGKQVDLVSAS

ACDESHGVPHTSGMC [PP-1A-#85]
specific binding to OVA-MMAF and OVA (OVA-MMAF): good binding activity to OVA-MMAF and did not bind to OVA | competitive binding of free MMAE (BSA-MMAF [1]): blocked by truncated free MMAE, but not blocked by null-ADC

ACGSLSWRNCGSYRC [PP-1A-#417]
specific binding to DXD (dot blot) (OVA-DXD): capable of specifically binding to DXD | cytoprotective effect (NCI-H292 tumor cells): exhibited a cytoprotective effect

ACHWNAKADYGSFVC (cysteine pairing not given here; also: Fc fusion) [PP-1A-#91]
specific binding to OVA-MMAF and OVA (OVA-MMAF): specific binding to OVA-MMAF, but the binding activity was relatively weak

ACLACWTSRSC [PP-1A-#414]
specific binding to DXD (dot blot) (OVA-DXD): capable of specifically binding to DXD | cytoprotective effect (NCI-H292 tumor cells): exhibited a cytoprotective effect; also recorded: had the best activity

ACLPNSLGPSAMSSC [PP-1A-#86]
specific binding to OVA-MMAF and OVA (OVA-MMAF): good binding activity to OVA-MMAF and did not bind to OVA

ACLRNSPRKQC (cysteine pairing not given here; also: Fc fusion) [PP-1A-#90]
specific binding to OVA-MMAF and OVA (OVA-MMAF): specific binding to OVA-MMAF, but the binding activity was relatively weak

ACLSPWLFFWC [PP-1A-#415]
specific binding to DXD (dot blot) (OVA-DXD): capable of specifically binding to DXD | cytoprotective effect (NCI-H292 tumor cells): exhibited a cytoprotective effect

ACRLTGPDWLHTQRC (cysteine pairing not given here; also: Fc fusion) [PP-1A-#88]
specific binding to OVA-MMAF and OVA (OVA-MMAF): specific binding to OVA-MMAF, but the binding activity was relatively weak

ACSQCVLLPPPQSVC [PP-1A-#431]
specific binding to DXD (dot blot) (OVA-DXD): capable of specifically binding to DXD

ACTGCSRTHSPRSRC (cysteine pairing not given here; also: Fc fusion) [PP-1A-#92]
specific binding to OVA-MMAF and OVA (OVA-MMAF): specific binding to OVA-MMAF, but the binding activity was relatively weak

ACTPALRSLAC (cysteine pairing not given here; also: Fc fusion) [PP-1A-#89]
specific binding to OVA-MMAF and OVA (OVA-MMAF): good binding activity to OVA-MMAF and did not bind to OVA

ACVLSPHPQAC [PP-1A-#93]
specific binding to OVA-MMAF and OVA (OVA-MMAF): good binding activity to OVA-MMAF and did not bind to OVA | competitive binding of free MMAE (BSA-MMAF [1]): blocked by truncated free MMAE, but not blocked by null-ADC

ACWTLWLPLLPLGSC [PP-1A-#428]
specific binding to DXD (dot blot) (OVA-DXD): capable of specifically binding to DXD

ACYPFGNPRGVRPSC [PP-1A-#426]
specific binding to DXD (dot blot) (OVA-DXD): capable of specifically binding to DXD

AHNVEILPPFDYTLS [PP-1A-#358]
specific binding to DXD (dot blot) (OVA-DXD): capable of specifically binding to DXD

APPTFPVSTSVVISR [PP-1A-#367]
specific binding to DXD (dot blot) (OVA-DXD): capable of specifically binding to DXD

Enfortumab vedotin (in-house) (antibody)
Top OD450 (Nectin-4): 1.23 OD450

ILTTVNVVPNTIHVR [PP-1A-#340]
specific binding to DXD (dot blot) (OVA-DXD): capable of specifically binding to DXD | cytoprotective effect (NCI-H292 tumor cells): exhibited a cytoprotective effect

LTVAMITTSRITTSN [PP-1A-#362]
specific binding to DXD (dot blot) (OVA-DXD): capable of specifically binding to DXD

VALTWYYPIYLFATR [PP-1A-#330]
specific binding to DXD (dot blot) (OVA-DXD): capable of specifically binding to DXD

YYVAWRW [PP-1B-#74]
specific binding to OVA-MMAF and BSA-MMAF (OVA-MMAF and BSA-MMAF): able to specifically bind to OVA-MMAF and BSA-MMAF | specific binding to MMAE (competitive ELISA) (BSA-MMAF [2]): able to specifically bind to MMAE

hIgG1 (antibody)
Top OD450 (Nectin-4): 0 OD450
